SMILES strings stand for the structures.

Twelve compounds from patent US20160046592A1, “PHARMACEUTICAL COMPOSITION FOR THE TREATMENT OF DIABETES” (Ajinomoto Co., Inc., priority 2013, published 2016) can be followed below.

For the assay, the target named is T1, human GYS1 (glycogen synthase) (Homo sapiens, UniProt P13807).
T1 construct: made in house; host or cells: HEK293T
T1 sequence (P13807 1-737): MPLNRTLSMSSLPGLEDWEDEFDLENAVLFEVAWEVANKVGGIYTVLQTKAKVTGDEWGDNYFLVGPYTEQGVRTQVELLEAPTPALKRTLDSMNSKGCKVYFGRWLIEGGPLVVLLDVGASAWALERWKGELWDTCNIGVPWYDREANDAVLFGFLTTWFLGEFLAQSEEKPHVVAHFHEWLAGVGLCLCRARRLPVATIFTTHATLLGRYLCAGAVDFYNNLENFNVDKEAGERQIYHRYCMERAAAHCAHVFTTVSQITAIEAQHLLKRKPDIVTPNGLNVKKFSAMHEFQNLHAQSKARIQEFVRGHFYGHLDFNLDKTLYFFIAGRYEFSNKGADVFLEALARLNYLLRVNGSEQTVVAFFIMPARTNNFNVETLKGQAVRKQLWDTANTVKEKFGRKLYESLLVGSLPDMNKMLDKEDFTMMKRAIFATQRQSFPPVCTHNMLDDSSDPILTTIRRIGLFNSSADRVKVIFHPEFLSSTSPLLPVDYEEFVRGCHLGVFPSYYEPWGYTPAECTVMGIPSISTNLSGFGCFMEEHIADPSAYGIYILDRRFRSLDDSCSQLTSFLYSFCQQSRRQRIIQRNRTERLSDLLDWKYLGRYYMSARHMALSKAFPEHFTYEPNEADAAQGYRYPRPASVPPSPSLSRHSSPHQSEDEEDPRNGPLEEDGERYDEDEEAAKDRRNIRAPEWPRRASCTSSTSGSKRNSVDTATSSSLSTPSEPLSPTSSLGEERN
As to the kind of experiment: Measurement of glycogen synthase activity. The assay is classed as biochemical. The conditions noted are these: concentration causing 50% increase in relative activity; 100% = compound of Example 1 of WO/2011/058154 at 10 μM; 10 mM Glucose-6-phosphate; 37° C. for 25 minutes (Examples 1 to 61 and 67 to 82) or 20 minutes (Examples 62 to 66); absorbance at 340 nm. A digest of the protocol:
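Human GYS1 from transfected HEK293T cells (re-dissolved 16000×g pellet) was reacted at 37 °C for 25 or 20 min in glycylglycine pH 7.3 with glucose-6-phosphate, glycogen and UDP-glucose. PK/LDH-coupled NADH read-out at 340 nm; EC50 from activity relative to a reference activator at 10 μM final (100%).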
`COCCN(CC(=O)O)C(=O)c1cccc(COc2ccc(-c3cc(F)c(F)cc3SC)cc2)c1` [Example 6, 2-[[3-[[4-(4,5-Difluoro-2-methylsulfanyl-phenyl)phenoxy]methyl]benzoyl]-(2-methoxyethyl)amino]acetic Acid] gave an EC50 of 0.017 µM.

The compound `CC(C)(O)CCN(CC(=O)O)C(=O)c1cccc(COc2ccc(-c3cc(F)c(F)c4ccoc34)cc2)c1` [Example 18, 2-[[3-[[4-(4,5-Difluorobenzofuran-7-yl)phenoxy]methyl]benzoyl]-(3-hydroxy-3-methyl-butyl)amino]acetic Acid] registered an EC50 of 0.0073 µM.

On to `CC(=O)N1CCC(CN(CC(=O)O)C(=O)c2cccc(COc3ccc(-c4cc(F)c(F)c5ccoc45)cc3)c2)CC1` [Example 81, 2-[(1-Acetyl-4-piperidyl)methyl-[3-[[4-(4,5-difluorobenzofuran-7-yl)phenoxy]methyl]benzoyl]amino]acetic Acid], for which the EC50 came out at 0.02 µM. The compound `COC1CCN(C(=O)c2cccc(COc3ccc(-c4cc(F)c(F)cc4SC)cc3)c2)C1C(=O)O` (stereo in doubt) [Example 33, (2S,3S)-1-[3-[[4-(4,5-Difluoro-2-methylsulfanyl-phenyl)phenoxy]methyl]benzoyl]-3-methoxy-pyrrolidine-2-carboxylic Acid] gave an EC50 of 0.021 µM. For `NC(=O)CN(CC(=O)O)C(=O)c1cccc(COc2ccc(-c3cc(F)c(F)c4ccoc34)cc2)c1` [Example 1, 2-[(2-Amino-2-oxo-ethyl)-[3-[[4-(4,5-difluorobenzofuran-7-yl)phenoxy]methyl]benzoyl]amino]acetic Acid] the value was 0.013 µM; for `CSc1cc(F)c(F)cc1-c1ccc(OCc2cccc(C(=O)N3CC[C@H](O)[C@H]3C(=O)O)c2)cc1` [Example 5, (2S,3S)-1-[3-[[4-(4,5-Difluoro-2-methylsulfanyl-phenyl)phenoxy]methyl]benzoyl]-3-hydroxy-pyrrolidine-2-carboxylic Acid], below 0.01 µM. For `CSc1cc(F)c(F)cc1-c1ccc(OCc2cccc(C(=O)N3C(CC#N)CC[C@H]3C(=O)O)c2)cc1` (stereo partly drawn) [Example 72, (2S)-5-(Cyanomethyl)-1-[3-[[4-(4,5-difluoro-2-methylsulfanyl-phenyl)phenoxy]methyl]benzoyl]pyrrolidine-2-carboxylic Acid] the value was 0.011 µM; for `CSc1cc(F)c(F)cc1-c1ccc(OCc2cccc(C(=O)N3C(C(N)=O)CC[C@H]3C(=O)O)c2)cc1` (single isomer, unassigned) [Example 57, (2S,5R) or (2S,5S)-5-Carbamoyl-1-[3-[[4-(4,5-difluoro-2-methylsulfanyl-phenyl)phenoxy]methyl]benzoyl]pyrrolidine-2-carboxylic Acid], 0.01 µM; for `COC[C@H](C)N(CC(=O)O)C(=O)c1cccc(COc2ccc(-c3cc(F)c(F)c4ccoc34)cc2)c1` [Example 80, 2-[[3-[[4-(4,5-Difluorobenzofuran-7-yl)phenoxy]methyl]benzoyl]-[(1S)-2-methoxy-1-methyl-ethyl]amino]acetic Acid], 0.024 µM.

In turn, `O=C(O)CN(CC1CCOCC1)C(=O)c1cccc(COc2ccc(-c3cc(F)c(F)c4ccoc34)cc2)c1` [Example 9, 2-[[3-[[4-(4,5-Difluorobenzofuran-7-yl)phenoxy]methyl]benzoyl]-(tetrahydropyran-4-ylmethyl)amino]acetic Acid] displayed an EC50 of 0.016 µM. With `CS(=O)(=O)NCCN(CC(=O)O)C(=O)c1cccc(COc2ccc(-c3cc(F)c(F)c4ccoc34)cc2)c1` [Example 16, 2-[[3-[[4-(4,5-Difluorobenzofuran-7-yl)phenoxy]methyl]benzoyl]-[2-(methanesulfonamido)ethyl]amino]acetic Acid], the EC50 was determined as 0.016 µM. In turn, `CSc1cc(F)c(F)cc1-c1ccc(OCc2cccc(C(=O)N(CC(=O)O)Cc3cocn3)c2)cc1` [Example 52, 2-[[3-[[4-(4,5-Difluoro-2-methylsulfanyl-phenyl)phenoxy]methyl]benzoyl]-(oxazol-4-ylmethyl)amino]acetic Acid] showed an EC50 of 0.0044 µM.
